# Results from patent US9012655B2, “Antimicrobial/adjuvant compounds and methods” (Denouamed, Inc., priority 2011, dated 2015).
# Columns and labels:
# Format in all cases: cell-based
# E. coli D22 = assay: MIC, NCCLS M7-A6 broth microdilution, E. coli D22; details: Escherichia coli, D22, 16 to 20 h, 35 degrees Celsius
# Method in brief: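 Broth microdilution per NCCLS M7-A6 in cation-adjusted Mueller-Hinton broth, doubling dilutions, inoculum 5×10^5 CFU/mL, DMSO controls included. Read after 16–20 h at 35 °C in ambient air; MIC is lowest concentration preventing visible growth.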
# Ps. aeruginosa = assay: Combination MICs for antibiotic adjuvant potential
# Experimental: (§1) Susceptibilities to the compounds were determined using the National Committee for Clinical Laboratory Standards (NCCLS) M7-A6 broth microdilution method. Cation-adjusted Mueller-Hinton broth (Ca^2+, 25 μg/mL; Mg^2+, 12.5 μg/mL) microdilution panels were prepared to contain antimicrobial doubling dilution concentrations of an appropriate range. DMSO (dimethylsulfoxide) controls were incorporated into the panel to mimic the quantity of DMSO used in dissolving some of the compounds at the higher concentrations. Each final panel well volume was 100 μL with a bacterial inoculum of 5×10^5 CFU (colony forming units)/mL of the relevant bacterium. Panels were read following 16 to 20 h of incubation at 35 degrees Celsius in ambient air. The MIC (minimum inhibitory concentration) was defined as the lowest concentration of antimicrobial inhibiting visible growth.
# Generally following the procedure of Example 9, MICs of ampicillin, erythromycin, and azithromycin were determined against Ps. aeruginosa. Parallel to this effort, solutions were prepared which were identical. To each of these were added 0.5 μL of stock solution of a given compound of the present invention, then diluted to produce a final concentration of 125 μM, 60 μM, and/or 30 μM for determination of adjuvant activity. Compounds were determined to be antibiotic adjuvants if the mixture produced a lower MIC than that of the antibiotic agent alone.
# [1] = test system: Staphylococcus aureus AUR59 7005; assay: MIC panel of challenge pathogens (CLSI); details: AUR597005, Staphylococcus aureus AUR59 7005; for MIC: read-out: 100% inhibition; for MIC50: read-out: MIC50 (50%); for MIC80: read-out: MIC80 (80%)
# Method in brief: (§2)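 Broth microdilution per CLSI guidelines. Final inoculum 2-8×10^5 CFU/ml, compounds serially two-fold diluted from 128 mg/L top concentration. Incubated in the dark at 30-37° C for 24-48 h, aerobic or anaerobic as appropriate. MIC read visually as 100% inhibition endpoint; MIC50 and MIC80 also reported.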
# [2] = test system: Staphylococcus aureus NRS1 (ATCC700699); assay: MIC panel of challenge pathogens (CLSI); details: Staphylococcus aureus NRS1 (ATCC700699); for MIC: read-out: 100% inhibition; for MIC50: read-out: MIC50 (50%); for MIC80: read-out: MIC80 (80%)
# Method in brief: as §2
# Bacillus cereus NCTC6349 = assay: MIC panel of challenge pathogens (CLSI); details: Bacillus cereus NCTC6349; for MIC: read-out: 100% inhibition; for MIC50: read-out: MIC50 (50%); for MIC80: read-out: MIC80 (80%)
# Method in brief: as §2
# [3] = test system: Staphylococcus epidermidis NRS122; assay: MIC panel of challenge pathogens (CLSI); details: Staphylococcus epidermidis NRS122; for MIC: read-out: 100% inhibition; for MIC50: read-out: MIC50 (50%); for MIC80: read-out: MIC80 (80%)
# Method in brief: as §2
# [4] = test system: Enterococcus faecalis ATCC29212; assay: MIC panel of challenge pathogens (CLSI); details: Enterococcus faecalis ATCC29212; for MIC: read-out: 100% inhibition; for MIC50: read-out: MIC50 (50%); for MIC80: read-out: MIC80 (80%)
# Method in brief: as §2
# [5] = test system: Staphylococcus epidermidis NRS7; assay: MIC panel of challenge pathogens (CLSI); details: Staphylococcus epidermidis NRS7; for MIC: read-out: 100% inhibition; for MIC50: read-out: MIC50 (50%); for MIC80: read-out: MIC80 (80%)
# Method in brief: as §2
# [6] = test system: Staphylococcus aureus AUR60 7005; assay: MIC panel of challenge pathogens (CLSI); details: AUR607005, Staphylococcus aureus AUR60 7005; for MIC: read-out: 100% inhibition; for MIC50: read-out: MIC50 (50%); for MIC80: read-out: MIC80 (80%)
# Method in brief: as §2
# [7] = test system: Staphylococcus aureus ATCC43300; assay: MIC panel of challenge pathogens (CLSI); details: Staphylococcus aureus ATCC43300; for MIC: read-out: 100% inhibition; for MIC50: read-out: MIC50 (50%); for MIC80: read-out: MIC80 (80%)
# Method in brief: as §2
# [8] = test system: Enterococcus faecium ATCC700221; assay: MIC panel of challenge pathogens (CLSI); details: Enterococcus faecium ATCC700221; for MIC: read-out: 100% inhibition; for MIC50: read-out: MIC50 (50%); for MIC80: read-out: MIC80 (80%)
# Method in brief: as §2
# [9] = test system: Staphylococcus aureus EUP MRSA002; assay: MIC panel of challenge pathogens (CLSI); details: EUPMRSA002, Staphylococcus aureus EUP MRSA002; for MIC: read-out: 100% inhibition; for MIC50: read-out: MIC50 (50%); for MIC80: read-out: MIC80 (80%)
# Method in brief: as §2
# [10] = test system: Staphylococcus aureus EUP MRSA002; assay: MIC panel of challenge pathogens (CLSI), EUP MRSA002; details: EUPMRSA002, Staphylococcus aureus EUP MRSA002; for MIC: read-out: 100% inhibition; for MIC50: read-out: MIC50 (50%); for MIC80: read-out: MIC80 (80%)
# Experimental: The inocula for each bacterial strain were prepared by picking 5-10 distinct colonies from the culture plates and suspending them in the appropriate broth as per Clinical and Laboratory Standards Institute (CLSI) guidelines M07-A8, M24-A or M11-A7 as appropriate. The inoculum was resuspended by vigorous shaking on a vortex mixer for 15 s. The turbidity was then adjusted to McFarland standard 0.5 ([…]). The inoculum was further diluted in the appropriate media for MIC tests to give a final inoculum in each well of 2-8×10^5 CFU/ml. MICs were tested in the appropriate broth in accordance with the appropriate CLSI guidelines.
# A stock solution of each compound was prepared at a concentration of 1.28 g/L in DMSO. The stock was further diluted in the appropriate media to give a top starting concentration of 128 mg/L in the assay. 100 μL of the appropriate media, as per CLSI guidelines, was dispensed into each well in columns 2-12. 200 μL of the each compound solution (at 256 mg/L) was dispensed into each well in column 1. 100 μL aliquots were pipetted from column 1 wells and dispensed into column 2 with a multichannel pipette (±2% coefficient of variation) thus diluting two-fold. 100 μL samples were then pipetted from column 2 wells and dispensed into column 3. The process was repeated through to column 10. The final 100 μL of diluted drug from column 10 was then discarded. Row 11 acted as a positive control (no compound, but organisms added), Row 12 acted as a negative control (no compound, and no organisms added).
# 100 μL of the appropriate inoculum suspension in the appropriate media, as per CLSI guidelines, was added to the appropriate wells. […] All plates were incubated in the dark under aerobic or anaerobic conditions at 30-37° C. for 24-48 hours, according to the appropriate CLSI guideline. Plates were read visually 24-48 hours post inoculation. Endpoints of 100% inhibition were determined (CLSI interpretation endpoints following visual examination).
# MIC50, MIC80, and 100% inhibition results are reported below in μg/mL in the following Tables, indicating each compound tested against a given species and strain: […]
# [11] = test system: Streptococcus pneumoniae Group A; assay: MIC against Streptococcus pneumoniae Group A; details: initial measurement, Todd Hewitt broth
# Experimental: as §1
# Generally following the procedure of Example 9, but using Todd Hewitt broth (beef heart digest) rather than Mueller-Hinton broth, MICs were initially measured against Streptococcus pneumoniae Group A for compounds of the present invention as follows: […]
SMILES,MIC (E. coli D22) [µM],MIC [1] [µg/mL],MIC50 [1] [µg/mL],MIC80 [1] [µg/mL],MIC [2] [µg/mL],MIC50 [2] [µg/mL],MIC80 [2] [µg/mL],MIC (Bacillus cereus NCTC6349) [µg/mL],MIC50 (Bacillus cereus NCTC6349) [µg/mL],MIC80 (Bacillus cereus NCTC6349) [µg/mL],MIC [3] [µg/mL],MIC50 [3] [µg/mL],MIC80 [3] [µg/mL],MIC [4] [µg/mL],MIC50 [4] [µg/mL],MIC80 [4] [µg/mL],MIC [5] [µg/mL],MIC50 [5] [µg/mL],MIC80 [5] [µg/mL],MIC [6] [µg/mL],also measured
"Clc1ccc(-c2cc(-c3nnn[nH]3)sc2-c2ccc(Cl)cc2)cc1 [DNM0487, 5-(4,5-Bis(4-chlorophenyl)thiophen-2-yl)-1H-tetrazole]",> 125,1,1,1,0.5,0.25,0.5,0.5,0.5,0.5,4,4,4,2,2,2,1,0.5,1,1,"MIC (Ps. aeruginosa; Pseudomonas aeruginosa, compound alone, read-out: standalone MIC): > 2000 µM; MIC50 [6]: 1 µg/mL; MIC80 [6]: 1 µg/mL; MIC [7]: 1 µg/mL; MIC50 [7]: 1 µg/mL; MIC80 [7]: 1 µg/mL; MIC [8]: 1 µg/mL; MIC50 [8]: 1 µg/mL; MIC80 [8]: 1 µg/mL; MIC [9]: 2 µg/mL; MIC50 [9]: 1 µg/mL; MIC80 [9]: 2 µg/mL; MIC [10]: 1 µg/mL; MIC50 [10]: 1 µg/mL; MIC80 [10]: 1 µg/mL"
"Fc1ccc(-c2cc(-c3nnn[nH]3)sc2-c2ccc(F)c3ccccc23)c2ccccc12 [DNM0537, 5-(4,5-Bis(4-fluoronaphthalen-1-yl)thiophen-2-yl)-1H-tetrazole]",125,≤ 0.25,≤ 0.25,≤ 0.25,≤ 0.25,≤ 0.25,≤ 0.25,≤ 0.25,≤ 0.25,≤ 0.25,4,4,4,1,0.5,1,1,0.5,1,≤ 0.25,fold lower MIC for erythromycin (Ps. aeruginosa; compound at 30 μM): ≤ 7 fold; MIC50 [6]: ≤ 0.25 µg/mL; MIC80 [6]: ≤ 0.25 µg/mL; MIC [7]: 1 µg/mL; MIC50 [7]: 0.5 µg/mL; MIC80 [7]: 1 µg/mL; MIC [8]: 0.5 µg/mL; MIC50 [8]: 0.5 µg/mL; MIC80 [8]: 0.5 µg/mL; MIC [9]: 1 µg/mL; MIC50 [9]: 1 µg/mL; MIC80 [9]: 1 µg/mL; MIC [10]: 1 µg/mL; MIC50 [10]: 0.5 µg/mL; MIC80 [10]: 1 µg/mL
"Cc1cc(Cl)ccc1-c1cc(-c2nnn[nH]2)sc1-c1ccc(C)c2ccccc12 [DNM0576, 5-(4-(4-Chloro-2-methylphenyl)-5-(4-methylnaphthalen-1-yl)thiophen-2-yl)-1H-tetrazole]",> 125,0.5,0.5,0.5,0.5,0.25,0.5,0.5,≤ 0.25,≤ 0.25,2,2,2,1,1,1,0.5,0.25,0.5,0.5,MIC [11]: 0.5 µM; MIC50 [6]: 0.5 µg/mL; MIC80 [6]: 0.5 µg/mL; MIC [7]: 0.5 µg/mL; MIC50 [7]: 0.5 µg/mL; MIC80 [7]: 0.5 µg/mL; MIC [8]: 0.5 µg/mL; MIC50 [8]: 0.25 µg/mL; MIC80 [8]: 0.25 µg/mL; MIC [9]: ≤ 0.25 µg/mL; MIC50 [9]: ≤ 0.25 µg/mL; MIC80 [9]: ≤ 0.25 µg/mL; MIC [10]: 0.5 µg/mL; MIC50 [10]: 0.5 µg/mL; MIC80 [10]: 0.5 µg/mL
